Assays:
[1] = system: M2-10B4 mouse marrow stromal cell line; experiment: Matrix mineralization in M2 cells (von Kossa staining, 45Ca incorporation assay); type: cell-based; details: 0.5-10 μM, as many as 14 days, data not shown
Method: Cells: M2-10B4 mouse marrow stromal cell line obtained from American Type Culture Collection (ATCC, Rockville, Md., U.S.A.) was derived from bone marrow stromal cells of a (C57BL/6J×C3H/HeJ) F1 mouse, and support human and murine myelopoiesis in long-term cultures (as per ATCC) and have the ability to differentiate into osteoblastic and adipocytic cells. Unless specified, these cells were cultured in RPMI 1640 containing 10% heat-inactivated FBS, and supplemented with 1 mM sodium pyruvate, 100 U/ml penicillin, and 100 […] (all from Irvine Scientific).
Von Kossa and oil red O staining—Matrix mineralization in cell monolayers was detected by silver nitrate staining as previously described. Oil red O staining for detection of adipocytes was performed as previously described.
^45Ca incorporation assay—Matrix mineralization in cell monolayers was quantified using the ^45Ca incorporation assay as previously described.
M2 cells at confluence were treated in osteogenic medium with control vehicle or 5 μM oxysterols, alone or in combination as indicated. After 14 days, mineralization was identified by a von Kossa staining, which appears black. FIG. 3C is a depiction of von Kossa staining of M2 cells exposed to various conditions.
M2 cells were treated with control vehicle (C) or a combination of 22R and 20S oxysterols at increasing concentrations. After 14 days, matrix mineralization in cultures was quantified using a ^45Ca incorporation assay. […] FIG. 3D is a bar graph depicting the effect of a combination of oxysterols at various doses on calcium incorporation in M2 cells.
Next, a combination of 22R and 20S oxysterols (RS, 2.5 μM each) were added in the presence or absence of SC as indicated. After 3 days, ALP activity was measured as described earlier. […] (B) M2 cells were treated as described in (A) and after 10 days matrix mineralization in cultures was quantified by a ^45Ca incorporation assay as described earlier. Results from a representative of three experiments are shown, reported as the mean±SD of quadruplicate determinations, normalized to protein concentration. (C) M2 cells were pretreated with 20 μM SC for 4 hours, followed by the addition of RS in the presence or absence of SC as described above. After 8 days, total RNA was isolated and analyzed for osteocalcin (Osc) and 18S rRNA expression by Northern blotting as previously described. Data from densitometric analysis of the Northern blot is shown in (D) as the average of duplicate samples, normalized to 18S rRNA. (E) M2 cells at confluence were pretreated for 2 hours with control vehicle (C), or PLA2 inhibitors ACA (25 μM) and MCOCF3 (MC, 20 μM), in osteogenic medium. Next, a combination of 22R and 20S oxysterols (RS, 2.5 μM) was added in the presence or absence of the inhibitors as indicated. After 3 days, ALP activity was measured as previously described. Data from a representative of three experiments are shown, reported as the mean±SD of quadruplicate determinations, normalized to protein concentration (p<0.01 for RS vs. RS+ACA and RS+MC). (F) M2 cells were treated as described in (E). After 10 days, matrix mineralization in cultures was quantified using a ^45Ca incorporation assay as previously described. Results from a representative of three experiments are shown, reported as the mean of quadruplicate determinations±SD, normalized to protein concentration (p<0.01 for RS vs. RS+ACA and RS+MC).
(A) M2 cells at confluence were pretreated for four hours with RPMI containing 1% FBS, followed by treatment with control vehicle or 5 μM 20S oxysterol for 1, 4, or 8 hours. Next total cell extracts were prepared and analyzed for levels of native or phosphorylated ERK (pERK) using specific antibodies as previously described.

[2] = system: lipoprotein lipase (LPL); experiment: Northern blotting for lipoprotein lipase in M2 cells; type: cell-based, mouse; details: 10 μM Tro with 10 μM 20S, 10 days (FIGS. 7C and D)
Method: (§1) RNA isolation and Northern blot analysis - Following treatment of cells under appropriate experimental conditions, total RNA was isolated using the RNA isolation kit from Stratagene (La Jolla, Calif., U.S.A.). Total RNA ([…]) was run on a 1% agarose/formaldehyde gel and transferred to Duralon-UV membranes (Strategene, CA, U.S.A.) and cross-linked with UV light. The membranes were hybridized overnight at 60° C. with ^32P-labeled mouse osteocalcin cDNA probe, mouse lipoprotein lipase (LPL), mouse adipocyte protein 2 (aP2) PCR-generated probes, human 28S or 18S rRNA probes obtained from Geneka Biotechnology (Montreal, Quebec, Canada) and Maxim Biotech (San Francisco, CA, U.S.A.), respectively. […] The extent of gene induction was determined by densitometry.
(§2) Test 2: (A) M2 cells at confluence were treated in RPMI containing 10% FBS with control vehicle or 10 μM troglitazone (Tro) in the absence or presence of 10 μM 20S or 22S oxysterols. After 10 days, adipocytes were visualized by oil Red O staining and quantified by light microscopy, shown in (B). […] After 10 days, total RNA was isolated and analyzed for lipoprotein lipase (LPL), adipocyte P2 gene (aP2) or 18S rRNA expression by Northern blotting as described (Ref). […]

[3] = system: adipocyte P2 gene (aP2); experiment: Northern blotting for adipocyte P2 gene in M2 cells; type: cell-based, mouse; details: 10 μM Tro with 10 μM 20S, 10 days (FIGS. 7C and D)
Method: as §1, §2

CC(C)CC[C@@H](O)[C@@H](C)[C@H]1CC[C@H]2[C@@H]3CC=C4C[C@@H](O)CC[C@]4(C)[C@H]3CC[C@]12C [22R, 22(R)-hydroxycholesterol]
induction of mineralization, individual oxysterols [1]: unable to induce

CC(C)CC[C@H](O)[C@@H](C)[C@H]1CC[C@H]2[C@@H]3CC=C4C[C@@H](O)CC[C@]4(C)[C@H]3CC[C@]12C [22S, 22(S)-hydroxycholesterol]
induction of mineralization, individual oxysterols [1]: unable to induce

CC(C)CCC[C@](C)(O)[C@H]1CC[C@H]2[C@@H]3CC=C4C[C@@H](O)CC[C@]4(C)[C@H]3CC[C@@]21C [20S, 20(S)-hydroxycholesterol]
expression of lipoprotein lipase (LPL) [2]: inhibition of the expression | induction of mineralization, individual oxysterols [1]: unable to induce | expression of adipocyte P2 gene (aP2) [3]: inhibition of the expression

Source: patent US9532994B2, “Agents and methods for enhancing bone formation by oxysterols in combination with bone morphogenic proteins” (THE REGENTS OF THE UNIVERSITY OF CALIFORNIA, priority 2003, dated 2017)
